pIC50: −log10 of the molar value. Where two headings read alike, the source gives them in different places.
Key:
[1] = target: T1, PBP1 (Staphylococcus aureus, UniProt Q53725); test: Bocillin FL competition assay, S. aureus membrane preparation; assay type: binding
T1 construct: Fluorescence labeling of S. aureus membrane preparation (150 μg) by Bocillin FL (30 μM); endogenous in cells; host or cells: S. aureus ATCC 29213 membrane preparation
Description: S. aureus (ATCC 29213), a methicillin-sensitive strain, was grown in Difco Luria-Bertani (LB) broth at 37° C. until an OD625˜0.8. Cells were centrifuged at 3,200 g for 30 min at 4° C. and washed once with cold 100 mM NaH2PO4, 50 mM NaHCO3, pH 7.5, buffer. The cells were resuspended in 10 mL cold buffer containing complete EDTA-free protease inhibitor, 200 μg/mL lysostaphin, 15 μg/mL DNase I, 10 mM MgCl2, and 1 mM EDTA and incubated for 30 min at 37° C. Cells were sonicated using a Branson Sonifer for 5×1 min cycles, with 2 min of rest in between each cycle, and the lysate was centrifuged at 3,200 g for 20 min at 4° C. The supernatant was then ultracentrifuged at 32,000 rpm for 1 h at 4° C. and the pellet was washed once with cold buffer. The resulting membrane was resuspended in buffer, quantified using the BCA Protein Assay Kit, and the concentration was adjusted to 9 mg/mL.
The Bocillin FL competition assays were performed with purified PBP2a and membrane extracts. PBP2a was purified using a previously described protocol (Fuda et al., J. Biol. Chem. 279, 40802-40806 (2004)). […] Samples were centrifuged, loaded to SDS-PAGE, the gels were visualized immediately using a Storm840 Scanner, and fluorescence was quantified using ImageQuant software. IC50 values were calculated using GraphPad prism 5, using the previously published equation.

[2] = system: S. aureus NRS100; test: MIC, CLSI broth microdilution, S. aureus NRS100; assay type: cell-based, Staphylococcus aureus
Description: (§1) MICs were evaluated following the CLSI microdilution method in BBL™ Mueller-Hinton II broth (Wikler et al., Clinical Laboratory Standards Institute Document M7-A7, 29 (2009)). Briefly, two-fold serial dilutions of compound were prepared in triplicate in 96-well plates and inoculated with 5×10^5 cfu/mL of the bacterial suspension. Plates were incubated at 37° C. for 16-20 hours.

[3] = system: S. aureus NRS120; test: MIC, CLSI broth microdilution, S. aureus NRS120; assay type: cell-based, Staphylococcus aureus
Description: as §1

[4] = system: S. aureus (ATCC 29213); test: Macromolecular synthesis assays; assay type: cell-based, Staphylococcus aureus
Source text: Mechanism of Action of the Quinazolinones. The mode of action of 2 was investigated by macromolecular synthesis assays in S. aureus in the logarithmic phase, which monitor incorporation of radiolabeled precursors [methyl-^3H]-thymidine, [5-^3H]-uridine, L-[4,5-^3H]-leucine, or D-[2,3-^3H]-alanine into DNA, RNA, protein, or cell wall (peptidoglycan), respectively. Inhibition of radiolabeled precursor incorporation by 2 at a concentration of half the MIC was compared with those of known inhibitors of each pathway (ciprofloxacin, rifampicin, tetracycline, and fosfomycin, respectively).
The mode of action of 2 was investigated by macromolecular synthesis assays in S. aureus in the logarithmic phase (Miller, A A et al. Antimicrob. Agents Chemother. 52, 2806-12 (2008)), which monitor incorporation of radiolabeled precursors [methyl-^3H]-thymidine, [5-^3H]-uridine, L-[4,5-^3H]-leucine, or D-[2,3-^3H]-alanine into DNA, RNA, protein, or cell wall (peptidoglycan), respectively.
The incorporation of radiolabeled precursors—[methyl-^3H]-thymidine, [5-^3H]-uridine, L-[4,5-^3H]-leucine, or D-[2,3-^3H]-alanine—into DNA, RNA, protein, or peptidoglycan, respectively, in logarithmically growing S. aureus (ATCC 29213) was measured using a previously published method, with aliquots taken every 20 min over a 120-min incubation period (Wilson et al., Antimicrob. Agents Chemother. 39, 1925-33 (1995)).

[5] = system: S. aureus VRS2; test: MIC, CLSI broth microdilution, S. aureus VRS2; assay type: cell-based, Staphylococcus aureus
Description: as §1

[6] = system: S. aureus NRS123; test: MIC, broth microdilution, S. aureus NRS123; assay type: cell-based; details: Staphylococcus aureus
Description: as §1

[7] = Plasma protein binding, rapid equilibrium dialysis, mouse; assay type: in vitro ADME; details: pH 7.4, mice, 6 h dialysis
Description: Aliquots from both chambers were quenched with 1:2 v/v acetonitrile containing an internal standard. The samples were concentrated to dryness on a miVac concentrator and the residue resuspended in 50:50 acetonitrile/water. Samples were analyzed by reverse-phase ultraperformance liquid chromatography (UPLC) with UV/Vis detection. Plasma protein binding of quinazolinone 2 was 98.0±0.04% in mice and 96.5±0.70% in humans.

[8] = Metabolic stability in rat S9; assay type: in vitro ADME; details: rat S9, 2 μM
Description: Aliquots were taken at 0, 5, 10, 20, 30, 40, and 60 min, and mixed with two volumes of acetonitrile containing internal standard. The precipitated protein was centrifuged at 20,000 g for 15 min, and the supernatant was analyzed by reversed-phase UPLC.

[9] = system: S. aureus ATCC 29213 (MSSA); test: MIC, CLSI broth microdilution, S. aureus ATCC 29213; assay type: cell-based, Staphylococcus aureus
Description: as §1

[10] = system: S. aureus NRS70; test: MIC, broth microdilution, S. aureus NRS70; assay type: cell-based, Staphylococcus aureus; details: for MIC: Staphylococcus aureus
Description: as §1

[11] = system: red blood cells; test: Hemolysis; assay type: cell-based, human; details: at 50 μg/mL
Description: Fresh heparinized human blood was washed three times by centrifugation at 1,200 g for 10 min in 100 mM PBS, pH 7.4. A 10% red-blood cell (RBC) suspension was prepared in PBS. Antibiotic 2 at 0.5, 5, and 50 μg/mL was added to aliquots of the 10% RBC suspension and incubated at 37° C. A positive control of 0.2% Triton was used. Samples were centrifuged at 1,200 g for 10 min and the supernatant measured for absorbance at 541 nm.

T1 sequence (Q53725 1-744): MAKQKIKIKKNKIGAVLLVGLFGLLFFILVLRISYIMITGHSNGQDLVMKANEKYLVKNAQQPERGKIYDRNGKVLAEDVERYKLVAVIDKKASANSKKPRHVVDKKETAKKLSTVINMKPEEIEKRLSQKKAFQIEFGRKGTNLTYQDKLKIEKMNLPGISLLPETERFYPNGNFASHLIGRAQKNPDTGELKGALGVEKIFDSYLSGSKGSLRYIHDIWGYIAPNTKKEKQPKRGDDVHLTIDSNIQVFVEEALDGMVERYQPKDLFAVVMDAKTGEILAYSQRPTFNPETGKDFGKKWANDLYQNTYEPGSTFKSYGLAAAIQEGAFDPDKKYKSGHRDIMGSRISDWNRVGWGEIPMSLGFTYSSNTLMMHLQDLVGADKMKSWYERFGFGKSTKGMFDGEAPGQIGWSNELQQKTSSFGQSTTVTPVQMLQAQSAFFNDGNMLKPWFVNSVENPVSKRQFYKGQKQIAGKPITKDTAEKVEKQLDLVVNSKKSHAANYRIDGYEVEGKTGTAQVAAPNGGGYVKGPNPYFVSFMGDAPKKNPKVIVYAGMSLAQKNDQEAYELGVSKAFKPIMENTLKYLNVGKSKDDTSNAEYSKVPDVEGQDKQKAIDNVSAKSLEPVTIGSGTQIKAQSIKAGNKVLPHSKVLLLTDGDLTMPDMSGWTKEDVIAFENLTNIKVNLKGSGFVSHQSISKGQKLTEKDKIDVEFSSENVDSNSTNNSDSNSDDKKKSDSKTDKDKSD

## N#Cc1ccc(/C=C/c2nc3ccccc3c(=O)n2-c2cccc(C(=O)O)c2)cc1.[Na] [Compound 2, Sodium (E)-3-(3-carboxyphenyl)-2-(4-cyanostyryl)quinazolin-4(3H)-one]
[1]
  pIC50: 3.73
[2]; Staphylococcus aureus, NRS100
  MIC: 16 µg/mL
[2]; Table 2.1, S. aureus NRS100
  In vitro AB activity (MIC): 16 µg/mL
[3]; Staphylococcus aureus, NRS120
  MIC: 8 µg/mL
[3]; Table 2.1, S. aureus NRS120
  In vitro AB activity (MIC): 8 µg/mL
[4]
  Effect on replication, transcription, or translation: did not significantly affect
  Inhibition of cell-wall (peptidoglycan) biosynthesis: 51±12%
[5]; Staphylococcus aureus, VRS2
  MIC: 2 µg/mL
[5]; Table 2.1, S. aureus VRS2
  In vitro AB activity (MIC): 2 µg/mL
[6]; NRS123
  MIC: 2 µg/mL
[6]; NRS123, read-out: MIC NRS123
  MIC: 4 µg/mL
[7]
  fraction unbound at 6 h, 10 μM: 0.02
[8]
  Compound remaining after 1-h incubation: 100%
[9]; Staphylococcus aureus
  MIC: 2 µg/mL
[9]; Table 2.1, S. aureus ATCC 29213
  In vitro AB activity (MIC): 2 µg/mL
[9]; with BSA vs without
  Increase of MIC in the presence of BSA: 4 fold
[10]; NRS70
  MIC: 2 µg/mL
[10]; NRS70, read-out: MIC NRS70
  MIC: 4 µg/mL
[10]; Table 2.1, S. aureus NRS70
  In vitro AB activity (MIC): 2 µg/mL
[11]
  Hemolysis of red blood cells: < 1%

Source: US10329262B2, “Quinazolinone antibiotics” (priority 2013, dated 2019)
